Experimental data reported in patent US7202265B2, “Indolinone combinatorial libraries and related products and methods for the treatment of disease” (Sugen, Inc., priority 1997, dated 2007).

The molecules below were run on human MET (assay: MET biochemical kinase assay). Details: not given.
Design: concentration or dose not given beside the values
Procedure, shortened: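 MET captured from cell lysates onto plates coated with goat anti-rabbit Fc plus rabbit polyclonal anti-MET cytoplasmic-domain antibody; after washing, compounds added with kinase buffer containing ATP and divalent metal ions. Receptor tyrosine phosphorylation detected by HRP-conjugated anti-phosphotyrosine antibody, TMB colorimetric read-out.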

| SMILES | Met Kinase % Inhibition [%] |
| --- | --- |
| COC(=O)c1[nH]c(C)c(C=C2C(=O)Nc3ccc(CCCl)cc32)c1C(=O)OC [10718/G07] | 52.0 |
| COc1cc(OC)c(C=C2C(=O)Nc3c(Br)cc(Br)cc32)c(OC)c1 [10719/A06] | −7.0 |
| Cc1ccc2occ(C=C3C(=O)Nc4c(Br)cc(Br)cc43)c(=O)c2c1 [10731/A06] | 53.0 |
| CC(C)(C)c1cc(C=C2C(=O)Nc3ccc(S(=O)(=O)Nc4ccc(C(F)(F)F)cc4)cc32)ccc1OCc1ccccc1 [10732/E06] | −2.1 |
| Cc1ccc(C=C2C(=O)Nc3ccc(CCCl)cc32)s1 [10717/G07] | 7.5 |
| Cc1c(Br)ccc2c1C(=Cc1coc3ccc([N+](=O)[O-])cc3c1=O)C(=O)N2 [10731/C07] | −11.6 |
| COc1cc(OC)c(C=C2C(=O)Nc3ccc(CCCl)cc32)c(OC)c1 [10719/G06] | −18.1 |
| CNS(=O)(=O)c1ccc2c(c1)C(=Cc1sccc1Br)C(=O)N2 [10725/D02] | 14.0 |
| O=C1Nc2ccc(S(=O)(=O)Nc3ccc(C(F)(F)F)cc3)cc2C1=Cc1c[nH]c(=O)[nH]c1=O [10731/E08] | 59.0 |
| COc1c(C(C)(C)C)cc(C=C2C(=O)Nc3c(Br)cc(Br)cc32)cc1C(C)(C)C [10733/A04] | 24.0 |
| CC(=O)n1cc(C=C2C(=O)Nc3ccc(S(=O)(=O)Nc4ccc(C(F)(F)F)cc4)cc32)c2ccccc21 [10730/E05] | 49.0 |
| Cc1c(Br)ccc2c1C(=Cc1cccc([N+](=O)[O-])c1)C(=O)N2 [10719/C10] | 7.9 |
| Cc1c(Br)ccc2c1C(=Cc1cc(C(C)(C)C)c(O)c(C(C)(C)C)c1)C(=O)N2 [10721/C11] | 3.7 |
| N#Cc1ccc(C=C2C(=O)Nc3ccc(S(=O)(=O)N4CCOCC4)cc32)cc1 [10727/F09] | 9.3 |
| Cc1c(O)ccc(C=C2C(=O)Nc3ccc(CCCl)cc32)c1O [10718/G09] | 27.0 |
| CC(C)(C)c1cc(C=C2C(=O)Nc3ccc(CCCl)cc32)ccc1O [10721/G09] | 5.1 |
| CNS(=O)(=O)c1ccc2c(c1)C(=Cc1cc([N+](=O)[O-])cc(CCl)c1O)C(=O)N2 [10721/D06] | 9.0 |
| O=C1Nc2ccc(CCCl)cc2C1=Cc1ccc(F)cc1Cl [10719/G09] | 1.3 |
| O=C1Nc2ccc(CCCl)cc2C1=Cc1cc(Cl)cc(Br)c1O [10727/G04] | 94.0 |

| SMILES | Met Kinase % Inhibition [%] |
| --- | --- |
| N#Cc1cccc(C=C2C(=O)Nc3c(Br)cc(Br)cc32)c1 [10727/A08] | 9.7 |
| Cc1c(Br)ccc2c1C(=Cc1ccc(F)cc1Cl)C(=O)N2 [10719/C09] | 8.9 |
| CCOc1ccc(C=C2C(=O)Nc3ccc(I)cc32)cc1OC [10719/B02] | 47.0 |
| O=C1Nc2c(Br)cc(Br)cc2C1=Cc1ccccc1Sc1ccc(Cl)cc1 [10727/A05] | 29.0 |
| CNS(=O)(=O)c1ccc2c(c1)C(=Cc1ccc(C(F)(F)F)cc1)C(=O)N2 [10722/D11] | 41.0 |
| COc1c(C)cc(C=C2C(=O)Nc3ccc(CCCl)cc32)cc1C [10733/G06] | 0.8 |
| O=C1Nc2c(Br)cc(Br)cc2C1=Cc1cc(Cl)ccc1O [10734/A04] | 68.0 |
| COc1cc(OC)c(OC)cc1C=C1C(=O)Nc2ccc(S(=O)(=O)N3CCOCC3)cc21 [10730/F03] | −0.6 |
| CN(C)c1ccc(C=C2C(=O)Nc3ccc(S(=O)(=O)Nc4ccc(C(F)(F)F)cc4)cc32)cc1 [10719/E08] | 80.0 |
| O=C1Nc2ccc(CCCl)cc2C1=Cc1c[nH]c2ccccc12 [10717/G06] | 34.0 |
| COc1ccc(C=C2C(=O)Nc3ccc(Br)c(C)c32)cc1OC [10720/C04] | 29.0 |
| Cc1c(Br)ccc2c1C(=Cc1ncc[nH]1)C(=O)N2 [10720/C11] | 30.0 |
| CNS(=O)(=O)c1ccc2c(c1)C(=Cc1cc(C)c(OC)c(C)c1)C(=O)N2 [10733/D06] | −19.4 |
| Cc1c(Br)ccc2c1C(=Cc1sccc1Br)C(=O)N2 [10725/C02] | 6.3 |
| CC(C)(C)c1cc(C=C2C(=O)Nc3ccc(CCCl)cc32)cc(Br)c1O [10721/G10] | 12.0 |
| CCN(CC)c1ccc(C=C2C(=O)Nc3c(Br)cc(Br)cc32)cc1 [10727/A02] | 52.0 |
| CCOc1cccc(C=C2C(=O)Nc3ccc(S(=O)(=O)N4CCOCC4)cc32)c1O [10734/F02] | 55.0 |
| O=C1Nc2ccc(I)cc2C1=Cc1ccc(O)c([N+](=O)[O-])c1 [10724/B03] | 51.0 |
| CCN(CC)c1ccc(C=C2C(=O)Nc3ccc(S(=O)(=O)N4CCOCC4)cc32)cc1 [10727/F02] | 52.0 |

The molecules below were run against T1, FLK-1 receptor (Mus musculus, UniProt P35918) (assay: FLK-1 ELISA (catalytic activity of the FLK-1 receptor in FLK-1/NIH3T3 cells)). Details: not given.
T1 construct: expressed in transfected cells; host or cells: NIH3T3 C7#3 (FLK-1/NIH3T3)
Format: cell-based
Design: Flk Kinase % Inhibition: concentration or dose not given beside the values

T1 sequence (P35918 20-1345): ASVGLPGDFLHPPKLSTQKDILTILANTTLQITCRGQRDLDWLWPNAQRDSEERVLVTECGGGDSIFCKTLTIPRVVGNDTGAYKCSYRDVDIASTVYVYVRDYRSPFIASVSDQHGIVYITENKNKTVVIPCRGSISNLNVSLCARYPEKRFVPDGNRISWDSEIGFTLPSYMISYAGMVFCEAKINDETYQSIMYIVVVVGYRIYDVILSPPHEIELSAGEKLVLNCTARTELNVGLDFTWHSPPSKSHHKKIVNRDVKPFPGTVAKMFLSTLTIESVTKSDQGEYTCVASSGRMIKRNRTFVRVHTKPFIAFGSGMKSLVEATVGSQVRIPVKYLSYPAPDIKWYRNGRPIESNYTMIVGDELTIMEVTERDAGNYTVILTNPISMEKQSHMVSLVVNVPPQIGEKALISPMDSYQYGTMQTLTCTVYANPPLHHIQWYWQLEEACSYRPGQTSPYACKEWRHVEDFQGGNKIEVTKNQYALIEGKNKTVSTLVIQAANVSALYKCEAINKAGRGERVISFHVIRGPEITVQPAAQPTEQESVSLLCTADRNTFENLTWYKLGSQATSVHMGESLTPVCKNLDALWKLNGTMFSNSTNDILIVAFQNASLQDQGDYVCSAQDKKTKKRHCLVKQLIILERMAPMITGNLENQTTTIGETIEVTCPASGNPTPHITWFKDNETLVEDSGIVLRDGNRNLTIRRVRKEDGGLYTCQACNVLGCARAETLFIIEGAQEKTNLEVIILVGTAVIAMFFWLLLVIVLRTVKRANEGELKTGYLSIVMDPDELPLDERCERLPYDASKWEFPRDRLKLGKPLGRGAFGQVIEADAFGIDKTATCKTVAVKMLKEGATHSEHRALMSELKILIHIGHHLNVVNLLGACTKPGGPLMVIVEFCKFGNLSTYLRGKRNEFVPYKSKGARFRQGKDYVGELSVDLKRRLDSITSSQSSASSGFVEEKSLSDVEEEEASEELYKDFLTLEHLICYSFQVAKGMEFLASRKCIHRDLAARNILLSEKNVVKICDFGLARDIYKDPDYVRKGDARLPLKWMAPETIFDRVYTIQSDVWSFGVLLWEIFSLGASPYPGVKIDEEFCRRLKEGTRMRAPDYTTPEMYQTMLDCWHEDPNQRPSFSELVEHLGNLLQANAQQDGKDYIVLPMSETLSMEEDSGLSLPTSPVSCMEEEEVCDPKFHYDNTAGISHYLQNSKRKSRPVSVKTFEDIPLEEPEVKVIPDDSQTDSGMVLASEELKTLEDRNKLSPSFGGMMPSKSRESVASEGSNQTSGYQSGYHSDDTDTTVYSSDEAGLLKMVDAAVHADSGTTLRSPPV

| SMILES | Flk Kinase % Inhibition [%] |
| --- | --- |
| O=C1Nc2ccc(CCCl)cc2C1=Cc1cccc(Br)c1 [10723/G10] | 3.5 |
| COc1cccc(O)c1C=C1C(=O)Nc2ccc(S(=O)(=O)N3CCOCC3)cc21 [10717/F10] | −4.4 |

Same assay, conditions: Table 2; read-out: FLK Kinase IC50

| SMILES | IC50 [µM] |
| --- | --- |
| Cn1cc(/C=C2\C(=O)Nc3ccc(N)cc32)c2ccccc21 | 2.5 |
| Cc1cccc2c1/C(=C/c1cn(C)c3ccccc13)C(=O)N2 | 7.7 |
| COc1ccc2[nH]cc(/C=C3\C(=O)Nc4ccccc43)c2c1 | 13 |
| Cn1cc(/C=C2\C(=O)Nc3ccccc32)c2ccccc21 | 0.7 |
| Cn1cc(/C=C2\C(=O)Nc3ccc(F)cc32)c2ccccc21 | 14 |

Same assay, conditions: Table 6; read-out: FLK Kinase IC50

| SMILES | IC50 [µM] |
| --- | --- |
| O=C1Nc2ccc(Cl)cc2/C1=C/c1cc2c([nH]1)CCCC2 | 5 |
| O=C1Nc2ccccc2/C1=C/c1cc2c([nH]1)CCCC2 | 1.4 |
| Nc1ccc2c(c1)/C(=C/c1cc3c([nH]1)CCCC3)C(=O)N2 | 1.2 |

Same assay, conditions: Table 7; read-out: Activity 1C50 FLK Kinase

| SMILES | IC50 [µM] |
| --- | --- |
| O=C1Nc2ccccc2/C1=C\c1cc2c([nH]1)CCCC2 [compound 0128] | 1.7 |
| O=C1Nc2ccc(Br)cc2/C1=C\c1cc2c([nH]1)CCCC2 [compound 0129] | 19.6 |

Same assay, conditions: Table 8

| SMILES | Activity EC200 |
| --- | --- |
| Cc1ccc(/C=C2\C(=O)Nc3ccc(CCC(=O)O)cc32)s1 | ActivityEC200 > 100 μm |
| CC(C)c1cc(C(C)C)c(/C=C2\C(=O)Nc3ccc(C(=O)O)cc32)[nH]1 | ActivityEC200 = 10 μm |
| CCc1cc(CC)c(/C=C2\C(=O)Nc3ccc(C(=O)O)cc32)[nH]1 | ActivityEC200 = 2.8 μm |
| Cc1cc(C)c(/C=C2\C(=O)Nc3ccc(CCC(=O)O)cc32)[nH]1 | ActivityEC200 = 32 μm |
| Cc1ccc(/C=C2\C(=O)Nc3ccc(C(=O)O)cc32)s1 | ActivityEC200 = 46 μm |
| Cc1cc(C)c(/C=C2\C(=O)Nc3ccc(C(=O)O)cc32)[nH]1 | ActivityEC200 = 2.8 μm |

Same assay, conditions: Table 10; read-out: FLK Kinase IC50

| SMILES | IC50 [µM] |
| --- | --- |
| CN(C)CCCOc1ccc(/C=C2\C(=O)Nc3ccc(Cl)cc32)cc1 | 11.5 |
| COC(=O)CCc1c[nH]c(/C=C2\C(=O)Nc3ccc(Cl)cc32)c1C | 5.6 |
| CC(C)(C)c1ccc(/C=C2\C(=O)Nc3ccccc32)cc1 | 9.7 |
| COC(=O)CCc1c[nH]c(/C=C2\C(=O)Nc3ccc(N)cc32)c1C | 4.7 |
| O=C1Nc2ccccc2/C1=C/c1ccc(N2CCCC2)cc1 | 9.9 |
| Cc1cccc2c1/C(=C/c1ccc(OCCCN(C)C)cc1)C(=O)N2 | 8 |
| O=C1Nc2ccc(Cl)cc2/C1=C/c1c[nH]cn1 | 5.6 |
| COc1ccc(OC)c(/C=C2\C(=O)Nc3cccc(C)c32)c1 | 10.4 |
| Cc1cc(C)c(/C=C2\C(=O)Nc3cccc(C)c32)[nH]1 | 7.3 |
| COc1cc2c(cc1OC)/C(=C/c1coc3ccc(C(C)C)cc3c1=O)C(=O)N2 | 17.1 |
| CN(C)CCCOc1ccc(/C=C2\C(=O)Nc3ccc(N)cc32)cc1 | 13.7 |
| CCc1cc(CC)c(/C=C2\C(=O)Nc3ccc(N)cc32)[nH]1 | 5.6 |
| CCc1ccc(/C=C2\C(=O)Nc3ccccc32)cc1 | 20.3 |
| CC(C)(C)c1cc(/C=C2\C(=O)Nc3ccc([N+](=O)[O-])cc32)cc([N+](=O)[O-])c1OCc1ccccc1 | 16.4 |
| Cc1[nH]c(/C=C2\C(=O)Nc3ccc(N)cc32)c(Br)c1Br | 1.9 |
| CCc1cc(CC)c(/C=C2\C(=O)Nc3ccccc32)[nH]1 | 8.1 |
| O=C1Nc2ccc(Cl)cc2/C1=C/c1ccc(N2CCCC2)cc1 | 12.3 |
| COc1c(O)ccc(/C=C2\C(=O)Nc3ccc(Cl)cc32)c1[N+](=O)[O-] | 10.7 |

| SMILES | IC50 [µM] |
| --- | --- |
| O=CN1CCN(c2ccc(/C=C3\C(=O)Nc4ccccc43)cc2)CC1 | 6.2 |
| CCc1cc(CC)c(/C=C2\C(=O)Nc3cccc(C)c32)[nH]1 | 17.3 |
| O=C1Nc2ccc(Cl)cc2/C1=C/c1ccc(O)c(Br)c1 | 5.2 |
| Cc1cc(C)n(C)c1/C=C1\C(=O)Nc2ccc(N)cc21 | 1.1 |
| COC(=O)CCc1c[nH]c(/C=C2\C(=O)Nc3cccc(C)c32)c1C | 10.8 |
| COc1ccc(/C=C2\C(=O)Nc3ccccc32)cc1O | 2.9 |
| CCOC(=O)c1c(C)c(/C=C2\C(=O)Nc3ccccc32)n(C)c1C | 0.97 |
| O=CN1CCN(c2ccc(/C=C3\C(=O)Nc4ccc(Cl)cc43)cc2)CC1 | 5.8 |
| Cc1cc(C)c2c(c1)NC(=O)/C2=C\c1c[nH]cn1 | 4.6 |
| O=C1Nc2ccc(Cl)cc2/C1=C/c1ccc[nH]1 | 1.6 |
| COC(=O)CCc1c[nH]c(/C=C2\C(=O)Nc3ccccc32)c1C | 12.5 |
| CCc1c(C)[nH]c(/C=C2\C(=O)Nc3ccc(N)cc32)c1C | 1.5 |
| Cc1cc(Cl)cc2c1NC(=O)/C2=C\c1cc(O)c(O)c(Br)c1 | 18.5 |
| Cc1cccc2c1/C(=C/c1cc(C(C)C)c(OCc3ccccc3)c(C(C)C)c1)C(=O)N2 | 19.9 |
| CN(C)CCCOc1ccc(/C=C2\C(=O)Nc3ccccc32)cc1 | 4 |
| Nc1ccc2c(c1)/C(=C/c1ccc(N3CCCC3)cc1)C(=O)N2 | 18.4 |
| O=C1Nc2c(Br)cc(Cl)cc2/C1=C/c1cc(O)c(O)c(Br)c1 | 8.8 |
